We go through 13 molecules from patent US20240190887A1, “COMPOUND USED AS SHP2 INHIBITOR AND USE THEREOF” (TYK MEDICINES, INC., priority 2021, published 2024).

One assay has as its system MV4-11 cells. Briefly: Compound activity in MV4-11 cells (72 hr, cell viability by CTG method). Format: cell-based. The settings on record: Homo sapiens, 72 hr incubation. The protocol: MV4-11 cells in logarithmic growth phase were taken, prepared into cell suspension, inoculated in 96-well plates at 160 uL/well with an inoculation density of 5000 cells/well, and cultured overnight in a 37° C. cell culture incubator. A 5× solution of the compound to be tested was prepared with 4-fold gradient dilution, and a total of 8 concentrations with double duplicate wells. The solution of the compound to be tested was added into 96-well plate at 40 uL/well, and the blank and control wells were added with corresponding volume of solvent, shaken and mixed well, and then incubated in 37° C. cell incubator for 72 hr, and the cell viability was detected by CTG method.
Equation (Sample−blank)/(control−blank)*100% was used to convert raw data to inhibition rate, and the IC50 value could be obtained by curve fitting with four parameters (obtained with “log(inhibitor) vs. response—Variable slope” model in GraphPad Prism), and the results are shown in Table III. (In the table below, the following designations are used: <100 nM=A; 100-500 nM=B; >500 nM=C).

Another assay concerns the target T1, full-length SHP2 protein (Homo sapiens, UniProt Q06124).
T1 construct: Purified full-length SHP2 protein (Kamed Bio-Tianjin); purchased Kamed Bio-Tianjin
T1 sequence (Q06124 1-593): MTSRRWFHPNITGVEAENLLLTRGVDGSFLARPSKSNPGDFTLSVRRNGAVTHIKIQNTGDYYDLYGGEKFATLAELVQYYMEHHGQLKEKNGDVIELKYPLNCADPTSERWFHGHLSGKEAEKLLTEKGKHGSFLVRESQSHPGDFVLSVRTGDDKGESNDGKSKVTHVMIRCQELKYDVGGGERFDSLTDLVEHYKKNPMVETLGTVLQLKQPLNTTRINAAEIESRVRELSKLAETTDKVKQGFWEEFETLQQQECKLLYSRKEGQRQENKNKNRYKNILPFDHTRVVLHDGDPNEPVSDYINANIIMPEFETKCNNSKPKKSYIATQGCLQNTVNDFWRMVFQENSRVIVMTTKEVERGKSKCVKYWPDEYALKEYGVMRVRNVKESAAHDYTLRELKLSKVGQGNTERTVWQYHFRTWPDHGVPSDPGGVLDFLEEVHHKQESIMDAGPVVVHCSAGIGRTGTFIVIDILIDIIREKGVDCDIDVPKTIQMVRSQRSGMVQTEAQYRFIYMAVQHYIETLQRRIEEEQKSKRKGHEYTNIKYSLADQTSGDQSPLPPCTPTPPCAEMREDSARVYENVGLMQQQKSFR
Briefly: In vitro SHP2 enzyme activity inhibition (DiFMUP substrate, SHP2 activating peptide). Format: biochemical. The following applies: full-length SHP2 protein with activating peptide, 8 concentrations, read-out: IC50 of compounds inhibiting SHP2 enzyme activity. The protocol: • a) Purified full-length SHP2 protein (Kamed Bio-Tianjin) • b) SHP2 activating peptide (BPS Bioscience). • c) DiFMUP. • d) Reaction buffer (120 mM HEPES pH 7.2, 200 mM NaCl, 1 mM EDTA, 0.002% Brij35), added with 0.04% BSA after autoclave, stored at 4° C.; diluted to 1× before use, and added with 2 mM DTT.
• a) The 384-well plates were filled with 10 uL solution of compound to be tested (No. 2), 3-fold gradient dilution, totaling 8 concentrations; • b) The sample wells to be tested were added with 5 uL of […] activating peptide (No. 4, 2 uM) and 5 uL of 4×full-length SHP2 protein (0.88 nM), control wells were free of inhibitor, and blank wells were free of SHP2 activating peptide and inhibitor; • c) 384-well plate was sealed, mixed well and incubated at room temperature for 1 hr; • d) After adding 5 uL 5×DiFMUP (125 uM), 384-well plate was sealed, mixed well and incubated at room temperature for 1 hr, and then detected by En Vision;
% Inhibition=[1−(RFUsample−RFUblank)/(RFUtotal−RFUblank)]×100
Non-linear regression analysis was performed using Graphpad 8.0, and the IC50 values for each compound were obtained by fitting a curve of enzyme activity with compound concentration through the equation Y=Bottom+(Top−Bottom)/(1+10^((LogIC50−X)*Hill Slope)).

Where only a bound is given, the exact number is not on record here.

For the molecule `C[C@@H]1OCC2(CCN(c3nc4cnn(-c5ccc6cnn(C)c6c5)c4nc3CO)CC2)[C@@H]1N` [Compound C4], the IC50 is less than 100 nM in the assay on MV4-11 cells and less than 50 nM at full-length SHP2 protein.

Regarding `C[C@@H]1OCC2(CCN(c3nc4cnn(-c5cccc6c5ccn6C)c4nc3CO)CC2)[C@@H]1N` [Compound C5], the concentration for half-maximal inhibition (IC50) with MV4-11 cells was less than 100 nM; at full-length SHP2 protein, less than 50 nM.

As to `C[C@@H]1OCC2(CCN(c3nc4cnn(-c5ccc6nn(C)cc6c5Cl)c4nc3CO)CC2)[C@@H]1N` [Compound C6], the results for the 50% inhibitory concentration (IC50) in the assay with MV4-11 cells and at full-length SHP2 protein were less than 100 nM and less than 50 nM, respectively.

Regarding `C[C@@H]1OCC2(CCN(c3nc4cnn(-c5ccc6c(cnn6C)c5)c4nc3CO)CC2)[C@@H]1N` [Compound C11], the IC50 in the assay on MV4-11 cells was less than 100 nM; on full-length SHP2 protein it was less than 50 nM.

`C[C@@H]1OCC2(CCN(c3nc4cnn(-c5ccc6ccn(C)c6c5)c4nc3CO)CC2)[C@@H]1N` [Compound C12]: the figures for the IC50 in the assay on MV4-11 cells and at full-length SHP2 protein were less than 100 nM and less than 50 nM, respectively.

On to `C[C@@H]1OCC2(CCN(c3nc4cnn(-c5cccc6c5CCN6C)c4nc3CO)CC2)[C@@H]1N` [Compound C13], for which the IC50 on full-length SHP2 protein is less than 50 nM.

As for `C[C@@H]1OCC2(CCN(c3nc4cnn(-c5ccc6cn(C)nc6c5)c4nc3CO)CC2)[C@@H]1N` [Compound C14], the IC50 at full-length SHP2 protein is less than 50 nM.

As to `C[C@@H]1OCC2(CCN(c3nc4cnn(-c5ccc6cn[nH]c6c5)c4nc3CO)CC2)[C@@H]1N` [Compound C15], the IC50 with MV4-11 cells was less than 100 nM; on full-length SHP2 protein it was less than 50 nM.

On to `C[C@@H]1OCC2(CCN(c3nc4cnn(-c5ccc6cnn(C)c6c5)c4nc3C(F)F)CC2)[C@@H]1N` [Compound C16], for which the half-maximal inhibitory concentration (IC50) on full-length SHP2 protein was less than 50 nM.

With `C[C@@H]1OCC2(CCN(c3nc4cnn(-c5ccc6nnn(C)c6c5)c4nc3CO)CC2)[C@@H]1N` [Compound C17], the IC50 in the assay with MV4-11 cells was less than 100 nM; on full-length SHP2 protein, less than 50 nM.

As for `CCn1ncc2ccc(-n3ncc4nc(N5CCC6(CC5)CO[C@@H](C)[C@H]6N)c(CO)nc43)cc21` [Compound C18], on full-length SHP2 protein, the 50% inhibitory concentration (IC50) is less than 50 nM.

In the case of `Cc1nc(N2CCC3(CC2)CO[C@@H](C)[C@H]3N)c(CO)nc1Sc1ccnc(N)c1Cl` [RMC-4630, reference compound], the half-inhibitory concentration (IC50) with MV4-11 cells was less than 100 nM; on full-length SHP2 protein, less than 50 nM.

Turning to `C[C@@H]1OCC2(CCN(c3nc4cnn(-c5ccnc(N)c5Cl)c4nc3CO)CC2)[C@@H]1N` [WO2021148010A1 Example 5, reference compound], the half-inhibitory concentration (IC50) fell in the range of 100 to 500 nM in the assay on MV4-11 cells and 50 to 500 nM at full-length SHP2 protein.

Broadly, the IC50 is the concentration that inhibits the measured activity by half.
